# From US20250123273A1, “SYSTEM TO CALCULATE HUMAN ORAL BIOAVAILABILITY” (CN Bio Innovations Limited, priority 2023, published 2025)
# Columns and labels:
# [1] = tested on: primary human intestinal cells; assay: Intestinal barrier strength by transepithelial electrical resistance (TEER), primary intestinal cells in different media; format: cell-based; conditions: after 8 days in culture, FIG. 3
# Description: It was clear that that serum free intestinal differentiation media compromised the metabolic functionality of primary liver cells, thus would not be appropriate for the co-culture of these two cell types. Therefore, the inventors investigated which components of serum free intestinal differentiation media were important for intestinal barrier function.
# primary liver cells = assay: CYP3A4 metabolic rate of primary liver cells co-cultured with primary intestinal cells in dual organ plate; format: cell-based, human; conditions: co-culture with primary intestinal cells; threshold 1 pmol/min/million cell; by day 6 in culture; FIG. 4
Compound,TEER (intestinal barrier strength) [1],CYP3A4 metabolic rate (primary liver cells)
"C[C@]12CCC(=O)C=C1CC[C@@H]1[C@@H]2[C@@H](O)C[C@@]2(C)[C@H]1CC[C@]2(O)C(=O)CO [hydrocortisone, reference compound]",help maintain primary intestinal cell barrier function,–
epidermal growth factor [EGF],critical for primary intestinal cell barrier function,compromises the metabolic functionality
